“Also recorded” adds a separate entry of the source.
Tests used:
[1] = Mast cell number and serum IgE level; assay type: in vivo; settings: FIG. 8
[2] = system: TSLP (Thymic Stromal Lymphopoietin); assay: TSLP expression in HMC-1 cells; assay type: cell-based, human; settings: FIG. 7
IL-8 = assay: ELISA of IL-8 in A549 cells induced by LPS or IL-1beta; assay type: cell-based, human; settings: dose-dependent
Method: (§1) A549 cells (1×10^5/well) were seeded on a 96-well plate for 16 hrs. After starvation for 24 hrs., the cells were pretreated with LPS or IL-1beta for 4 hrs. The cells were then treated with IPS-07004 for 24 hrs. in a dose-dependent manner. Cytokines levels (IL-6 and IL-8) in media were analyzed in accordance with the manufacturer's specification (BD Biosciences Pharmingen, San Diego, Calif., USA).
(§2) To assess whether IPS-07004 inhibits the expression of IL-6 and IL-8, which play a critical role in asthma pathology, ELISA of the cytokines in A549 cells was employed.

MPTP-injected mice = assay: MPTP-induced Parkinson's disease mice (pole test, TH, IL-1b); assay type: in vivo
Method: For 1-methyl-4-phenyl-1,2,3,6-tetrahydropyridine (MPTP) intoxication, the mice received four intraperitoneal (i.p.) injections of MPTP-HCl (20 mg/kg, free base in saline; Sigma-Aldrich, St. Louis, Mo.) dissolved in PBS at 2 h intervals. Twelve hours after the last MPTP injection, the MPTP-injected mice were received IPS-07004, Montelukast, or IPS-07005 once daily through p.o. administrations.
To examine the effect of IPS-07004 on abnormal behavior of PD mice, Pole test (T-turn and T-LA time) was carried out. PD was induced in mice treated with MPTP (20 mg/kg, I.P) and the mice were administered with IPS-07004 at a dose of 10 mg/kg. And then pole test was performed in the mice. which can measure bradykinesia, a hallmark of Parkinson's disease. The T-turn measures the time the black mouse turns down from the top of the pole. IPS-07004 reduced the T-turn and T-LA time compared with MPTP-treated control group and L-Dopa-treated group, as shown in FIG. 18.

IL-6 = assay: ELISA of IL-6 in A549 cells induced by LPS or IL-1beta; assay type: cell-based, human; settings: dose-dependent
Method: as §1, §2

[3] = system: TSLP (Thymic Stromal Lymphopoietin); assay: TSLP expression in DNCB mice; assay type: in vivo; settings: DNCB (2,4-dinitrochlorobenzene) mice; FIG. 7
[4] = system: A549 lung carcinoma cells; assay: In vitro cell viability assay (MTT); assay type: cell-based, human; settings: IPS-07004 for 24 hrs, FIG. 1
Method: A549 lung carcinoma cells (1×10^3/well) were seeded on a 96-well plate for 16 hrs. After starvation for 24 hrs., the cells were pretreated with LPS or IL-1b for 4 hrs. The cells were then treated with IPS-07004 for 24 hrs. in a dose-dependent manner. After 48 hrs. of incubation, MTT [3-(4,5-dimethylthiazol-2-yl)-2,5-diphenyl-tetrazolium bromide] solution (5 mg/ml) was added to each well in an amount of 1/10 of total volume, and the cells were incubated for 2 hrs. at 37° C.
To examine the survival rate for A549 cells treated with IPS-07004, an in vitro cell viability assay was performed using MTT.

human Caspase-1 = target: T1, human Caspase-1 (Homo sapiens, UniProt P29466); assay: Caspase-1 activity in HMC-1 cell-based assay; settings: HMC-1 cells; FIG. 7, FIG. 9
T1 construct: endogenous in cells; host or cells: HMC-1 (human mast cell line)
T1 sequence (P29466 120-404): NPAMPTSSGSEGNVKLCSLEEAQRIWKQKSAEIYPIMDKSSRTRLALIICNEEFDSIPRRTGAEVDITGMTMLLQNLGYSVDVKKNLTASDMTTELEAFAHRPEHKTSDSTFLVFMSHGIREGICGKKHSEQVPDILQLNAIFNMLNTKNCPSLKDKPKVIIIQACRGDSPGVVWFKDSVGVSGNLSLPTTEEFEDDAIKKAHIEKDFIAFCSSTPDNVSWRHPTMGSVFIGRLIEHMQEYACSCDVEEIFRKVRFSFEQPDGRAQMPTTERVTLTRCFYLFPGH
From the text: Using HMC-1 (human mast cell line) cell-based assay, IPS-07005 ((IPS-07004+Montelukast) inhibited the activity of Caspase-1, a critical component of inflammasome, to suppress the conversion of Pro-TSLP, IL-1beta, and -IL-18 to active forms as shown in FIG. 9.

OVA-challenged mice = assay: OVA-induced asthma in mice (BAL fluid, IgE, lung histology); assay type: in vivo
Method: 25 mg Ovalbumin (OVA) and 1 mg aluminum hydroxide hydrate (AlOH3) were dissolved in […] of sterile saline solution and sensitized by intraperitoneal administration at 0 and 21 days. At the end of the observation period, all living animals were anesthetized using Isoflurane, and blood was collected from the vena cava/abdominal aorta. Lungs are removed and washed with sterile saline solution. […] of sterile saline was filled in a 1 mL syringe, and the injection and recovery were repeated three times. The washed solution was lightly centrifuged (300 rpm, 10 minutes) and the supernatant was frozen and used for analysis of CXCL1 (ab216951, Abcam PLC) IL-17A (ab199081, Abcam PLC) and CCL3 (ab100726, Abcam PLC). The precipitate was resuspended in the same amount of sterile saline solution and used for eosinophil count and total cell count. The collected blood was left at room temperature for 30 minutes and centrifuged at 3,000 rpm for 20 mins. to separate serum and used for total IgE and Ova-specific IgE analysis. Histopathological examination was performed using lung tissue fixed in formalin. Lung tissues extracted at autopsy were placed in a cassette and submerged in 10% Neutral buffered formalin (10% NBF) at least 20 times the tissue volume. After fixation, the tissue was cut to about 4 mm in thickness and fabricated into paraffin blocks after general tissue treatment and embedding. […]

[5] = A549 cells induced by LPS, FIG. 2
[6] = MPTP (20 mg/kg, I.P) mice, 10 mg/kg, compared with MPTP-treated control group and L-Dopa-treated group, FIG. 18

Row | Compound | mast cell number [1] | serum IgE level [1] | TSLP expression [2] | expression level of IL-8 (IL-8; A549 cells induced by IL-1beta) | expression level of IL-8 (IL-8; [5]) | Pole test T-LA time (MPTP-injected mice; [6]) | Pole test T-turn time (MPTP-injected mice; [6]) | tyrosine hydroxylase (TH) level in striatum and Substantia nigra (immunohistochemistry) (MPTP-injected mice; PD mice brain, compared with MPTP-treated control group and L-Dopa-treated group, FIG. 19) | IL-1b expression in PD brain (MPTP-injected mice; PD mice, FIG. 20) | expression level of IL-6 (IL-6; A549 cells induced by IL-1beta) | expression level of IL-6 (IL-6; [5]) | TSLP expression [3] | viability of A549 cells (MTT) ([4]; cells induced by IL-1beta) | viability of A549 cells (MTT) ([4]; cells induced by LPS) | Caspase-1 activity (human Caspase-1) | eosinophil number in BALF (OVA-challenged mice; compared with the OVA-challenged group, FIGS. 13B, 13C) | number of goblet cells (PAS staining of lung sections) (OVA-challenged mice; high dose of Montelukast, versus OVA-challenged group, FIGS. 15A and 15B)
1 | [H]/N=C(\N/C(=N/[H])Nc1ccc(Cl)cc1)NC(C)C [IPS-07004, proguanil] | inhibitory effect | inhibitory effect | inhibitory effect | reduced | reduced | reduced | reduced | decreased | reduced | reduced | reduced | inhibitory effect | little or no effect | little or no effect | inhibitory effect; also recorded: inhibited | decreased | 
2 | CC(C)(O)c1ccccc1CC[C@@H](SCC1(CC(=O)O)CC1)c1cccc(/C=C/c2ccc3ccc(Cl)cc3n2)c1 [Montelukast, montelukast] |  |  |  |  |  |  |  |  |  |  |  |  |  |  |  |  | significantly lower

From patent US10966943B2, “Methods and compositions for treatment of asthma or parkinson's disease” (InnoPharmaScreen Inc., priority 2018, dated 2021)
